Results taken from US11396531B2, “Antimicrobial peptides comprising epsilon lysine residues” (priority 2016, dated 2022).
In brackets after ≈: the same amount, converted by molar mass. Where two headings read alike, the source gives them in different places. No end group written: not given here.

Experiments:
[1] = tested on: Vancomycin-resistant Enterococcus (VRE)
Procedure: (§1) MIC of cationic polymers and polypeptide were tested in accordance with the Clinical and Laboratory Standards Institute (CLSI) guidelines against a panel of antibiotic-susceptible/-resistant bacteria, yeasts and fungal strains. Bacterial and yeast strains were cultured on tryptic soy agar (TSA) and Sabaroud dextrose agar (SDA) plates (Neogen Corporation, MI, USA) overnight respectively. Inocula in Mueller-Hinton broth (MHB) for bacteria and SD broth for C. albicans (Beckton Dickinson, MD, USA) were prepared at 0.5 McFarland. The suspensions were then diluted to a final concentration of 10^5 CFU/ml in a 96-well microtitre plate (SPL Life Sciences Co., Ltd, Korea). […] The antimicrobial activities were compared with topical antiseptic agents, BAK and CHX. A similar protocol was used to determine the MIC of εPL against antibiotic-resistant pathogens. MIC of the polymers and polypeptides against Fusarium strains was determined in full strength RPMI-1640 buffer. Fungal spores were recovered from a 5-day old culture on a potato dextrose agar and diluted to a concentration of 10^5 spores/ml in 0.9% saline solution. A further 50-fold dilution was done in RPMI-1640 buffer and 100 μl of the inoculum was added to 96 well plates containing an equal volume of test peptides at 2-fold serial dilutions. 200 μl of inoculum without any additives and buffer alone served as positive and negative controls, respectively. The plate was then incubated at 30° C. for 48 h. The absorbance value was measured at 600 nm as before and the lowest concentration of the peptide which inhibited 90% growth was reported. All MIC determinations were performed in duplicates.
(§2) MICs of polymers/antibiotics were determined using the microdilution method in 96 well microtitre plates (SPL Life Sciences Co., Ltd, Korea), following the guidelines of Clinical and Laboratory Standards Institute (CLSI) document M100-S18. Briefly, polymers (1-512 μg/ml) or antibiotics were dissolved in appropriate media (Mueller Hinton broth, MHB for bacteria; Sabaroud's Dextrose (SD) broth for yeasts and RPMI buffer for Fusarium strains) and 100 μl of this was then mixed with an equal volume of microbial inoculum (OD600=˜0.08) in the same media and shaken in a closed incubator.

[2] = tested on: primary human dermal fibroblasts (HDFs); assay: MTS cytotoxicity assay
Procedure: MTS ((3-(4,5-dimethylthiazol-2-yl)-5-(3-carboxymethoxyphenyl)-2-(4-sulfophenyl)-2H-tetrazolium)) assay and high content analysis (HCA) were performed to elucidate the effect of various polymers on metabolic activity and morphological parameters of cultured human dermal fibroblasts (hDF), respectively as described previously. The antineoplastic agent, nocodazole (5 μg/ml), served as the […] control whereas cells treated with PBS served as positive control. The average values from three independent triplicate experiments are reported. Cells were cultured in 96-well plates and scanned (16 randomly selected fields/well) using an automated microscope IN Cell Analyzer 2200 (GE Healthcare). The multi-parametric cytotoxicity bio-application module of the IN Cell Investigator software (GE Healthcare) was used in quantitative estimations and morphotypic analysis of acquired images, which were automatically converted into color-coded heatmaps using Spotrfire® software.
Human dermal fibroblast cells were seeded in 96-well plates (2×10^3 cells/well) and incubated for 24 h at 37° C. and 5% CO2. Cells were then treated with various concentrations of polymers or peptides (62.5 μg/ml-1 mg/ml. At the end of the treatment period (after 24 h), 20 or 50 μl of MTS tetrazolium solution was added into 96-well or 12-well plates and further incubated for 2 h at 37° C. Subsequently, the absorbance was measured at 490 nm using a microplate reader (Infinite M200 Pro, Tecan, Switzerland) and the relative cell viability was calculated. Each treatment was performed in two triplicates and reported.
The cytotoxicity of peptides and polymers were determined using CellTier 96® Aqueous One solution cell proliferation assay kit according to the manufacturer's instruction (Promega Corporation, Madison, Wis.). This assay evaluates mitochondrial function by measuring ability of viable cells to reduce MTS ((3-(4,5-dimethylthiazol-2-yl)-5-(3-carboxymethoxyphenyl)-2-(4-sulfophenyl)-2H-tetrazolium)) into a quantifiable […] formazan product. HDFs were seeded in 96-well plates (2×10^3 cells/well) and incubated for 24 h at 37° C. and 5% CO2. Cells were then treated with a concentrated stock solution of polymers (final concentration 62.5-2000 μg/ml in the well) or peptides (final concentration 4-1000 μg/ml in the well). After 24 h, 20 μl of MTS tetrazolium solution was added into 96-well well plates and further incubated for 2 h at 37° C. Subsequently, the absorbance was measured at 490 nm using a microplate reader (Infinite M200 Pro, Tecan, Switzerland) and the relative cell viability was calculated relative to untreated control (10 mM PBS, pH 7.0). Each treatment was performed in two triplicates and reported.

A. baumannii = assay: microbe, parasite or virus in culture
Procedure: as §1, §2

[3] = tested on: Carbapenam-resistant Enterobacter strains (CRE); assay: microbe, parasite or virus in culture
Procedure: as §1, §2

red blood cells = conditions: cited from earlier work
[4] = tested on: a number of micro-organisms; conditions: cited from earlier work
P. aeruginosa = assay type: cell-based, Pseudomonas aeruginosa; conditions: P. aeruginosa (n = 22)
Procedure: as §1, with “Korea). Polymers and polypeptides were added to the inoculum in 2-fold serial dilutions to give a range of concentrations from 2-1024 μg/ml.” for “Korea).”
MICs of polymers/antibiotics were determined using the microdilution method in 96 well microtitre plates (SPL Life Sciences Co., Ltd, Korea), following the guidelines of Clinical and Laboratory Standards Institute (CLSI) document M100-S18. […]

[5] = tested on: T-cell lymphomas (HuT78, MJ, HH) and B-cell lymphomas (Ly-4 and Ly-18); assay: Anticancer properties of hypercharged peptides (MTS); assay type: cell-based, human; conditions: 62.5-500 μg/ml
Procedure: The hyper-charged peptides were screened for their anticancer properties using cell lines derived from patients with various forms of cutaneous lymphomas, including T-cell lymphomas (HuT78, MJ, HH) and B-cell lymphomas (Ly-4 and Ly-18). The relative cytotoxicity of these peptides was also assessed in healthy primary peripheral blood lymphocyte (PBL) T-cells. Cytotoxicity was measured as the mitochondrial function by metabolic reduction of MTS.

C. albicans = C. albicans (n = 5)
Procedure: as §1, §2

E. coli = assay: microbe, parasite or virus in culture; assay type: cell-based, Escherichia coli
Procedure: as §1, with “Korea). Polymers and polypeptides were added to the inoculum in 2-fold serial dilutions to give a range of concentrations from 2-1024 μg/ml.” for “Korea).”
as §2

MRSA = assay type: cell-based, Staphylococcus aureus; conditions: MRSA (n = 9)
Procedure: as §1, with “Korea). Polymers and polypeptides were added to the inoculum in 2-fold serial dilutions to give a range of concentrations from 2-1024 μg/ml.” for “Korea).”
as §2

S. aureus = assay: microbe, parasite or virus in culture; assay type: cell-based, Staphylococcus aureus
Procedure: as §1, with “Korea). Polymers and polypeptides were added to the inoculum in 2-fold serial dilutions to give a range of concentrations from 2-1024 μg/ml.” for “Korea).”
as §2

K. pneumoniae = assay: microbe, parasite or virus in culture; assay type: cell-based, Klebsiella pneumoniae
Procedure: as §1, with “Korea). Polymers and polypeptides were added to the inoculum in 2-fold serial dilutions to give a range of concentrations from 2-1024 μg/ml.” for “Korea).”
as §2

E. cloacae complex = assay: microbe, parasite or virus in culture
Procedure: as §1, §2

[6] = at 5 × 10^5 CFU/mL, reference 7
[7] = at 5 × 10^5 CFU/mL, reference 5

## CC[C@H](C)[C@H](NC(=O)[C@H](CO)NC(=O)[C@H](CCCCN)NC(=O)[C@H](CC(C)C)NC(=O)[C@H](CCCCN)NC(=O)[C@@H](N)CC(C)C)C(=O)N[C@H](C(=O)N[C@@H](CO)C(=O)N[C@@H](Cc1c[nH]c2ccccc12)C(=O)N[C@@H](C)C(=O)N[C@@H](CCCCN)C(=O)N[C@@H](CCCCN)C(=O)N[C@H](C(=O)N[C@@H](CC(C)C)C(N)=O)C(C)C)C(C)C [Mastoparan B, LKLKSIVSWAKKVL]
[1]; VRE (n = 21), 90% of strains susceptible, Table 7
  MIC90: (MIC90 = 4)^1 μg/ml
[2]; MTS assay, primary human fibroblasts
  Peptide concentration required to impart cytotoxic effect: exceeded 62.5 μg/ml
[2]; Table 7
  Cytotoxicity for HDFs: 125 µg/mL
A. baumannii; A. baumanii (n = 10), 90% of strains susceptible, Table 7
  MIC90: (MIC90 = 2) μg/ml
[3]; CRE (n = 19), 50% of strains susceptible, Table 7
  MIC50: (MIC50 = 4) μg/ml

## CGIGAVLKVLTTGLPALISWIKRKRQQC [Unmodified parent peptide: CGIGAVLKVLTTGLPALISWIKRKRQQC (lin]
Red blood cells; at 10 μM, reference 7
  Haemolytic activity: Complete
[4]; [6]
  MIC (range against a number of micro-organisms): 2 - 32 μM at

## GIGAVLKVLTTGLCALISWIKRKRQQ (ends and bridges not checked)
Red blood cells; at 2.5 μM, reference 8
  Haemolytic activity: 50% at 2.5 μM

## GIGAVKKVLTTGKPALISWKKRKRQQ (not fully specified (residues 6, 13, 20); ends and bridges not checked; also: peptoid residue at 6, 13, 20 (identity not given here))
Red blood cells; at 100 μM, reference 6
  Haemolytic activity: <10% at 100 μM
[4]; at 1 × 10^6 CFU/mL, reference 6
  MIC (range against a number of micro-organisms): 2 - 8 μM at

## CGIGAVLKVLTTGLPALISWIKRKRQQC [Modified peptide: CGIGAVLKVLTTGLPALISWIKRKRQQC (cyclised)] (also: cyclised, mode not given here)
Red blood cells; at 10 μM, reference 7
  Haemolytic activity: ~50% at 10 μM
[4]; [6]
  MIC (range against a number of micro-organisms): 0.8 - 10 μM at

## GIGAVLKVLTTGLPALISWIKRKRQQ-NH2 [Modified peptide: GIGAVLKVLTTGLPALISWIKRKRQQ-NH2]
Red blood cells; at 50 μM, reference 5
  Haemolytic activity: <25% at 50 μM
[4]; [7]
  MIC (range against a number of micro-organisms): 0.8 - 12 μM at

## GIGAVLKVLTTGLPALISWIKRKRQQ [listing 1 of 2 here]
Red blood cells; at 2 μM, reference 4
  Haemolytic activity: 100% at 2 μM
[4]; at 1 - 4 × 10^5 CFU/mL, reference 4
  MIC (range against a number of micro-organisms): 0.1 - 2 μM at 1 -

## N=C(N)NCCC[C@@H](NC(=O)[C@@H](N)CCCCNC(=O)[C@@H](CCCNC(=N)N)NC(=O)[C@@H](N)CCCCNC(=O)[C@@H](CCCNC(=N)N)NC(=O)[C@@H](N)CCCCNC(=O)[C@@H](CCCNC(=N)N)NC(=O)[C@@H](N)CCCCNC(=O)[C@@H](CCCNC(=N)N)NC(=O)[C@@H](N)CCCCNC(=O)[C@@H](CCCNC(=N)N)NC(=O)[C@@H](N)CCCCN)C(=O)O [HC4, KrKrKrKrKrKr]
P. aeruginosa
  MIC: 16 to 64 µg/mL
[5]
  cell killing in lymphoma cell lines: varying degrees of cell killing
[1]; VRE (n = 3)
  MIC: 16 µg/mL (≈ 9.28 µM)
C. albicans
  MIC: 16 to 32 µg/mL
E. coli; E. coli (n = 3)
  MIC: 16 µg/mL (≈ 9.28 µM)
MRSA
  MIC: 16 to 64 µg/mL
S. aureus; S. aureus (n = 6)
  MIC: 32 µg/mL (≈ 18.6 µM)
K. pneumoniae; K. pneumonia (n = 4)
  MIC: 16 to 128 µg/mL
E. cloacae complex; E. clocae complex (n = 4)
  MIC: 64 to 128 µg/mL
A. baumannii; A. baumanii (n = 3)
  MIC: 16 to 32 µg/mL
[3]; CRE strains (n = 4)
  MIC: 64 to 128 µg/mL

## GIGAVLKVLTTGLPALISWIKRKRQQ [listing 2 of 2 here]
Red blood cells; reference 9, result in words
  Haemolytic activity: Loss of peptide
[4]; reference 9, result in words
  MIC: Loss of peptide

## NC[C@H]1O[C@H](O[C@H]2[C@H](O)[C@@H](O[C@H]3O[C@H](CO)[C@@H](O)[C@H](N)[C@H]3O)[C@H](N)C[C@@H]2N)[C@H](N)C[C@@H]1O [Tobramycin]
E. coli; Escherichia coli, E. coli (n = 8), range over strains, read-out: MIC
  MIC: 195 to 100000 µg/mL (≈ 417 to 214000 µM)
S. aureus; Staphylococcus aureus, S. aureus (n = 9), read-out: MIC
  MIC: 500 to 1000 µg/mL (≈ 1070 to 2140 µM)
K. pneumoniae; Klebsiella pneumoniae, K. pneumoniae (n = 8), range over strains, read-out: MIC
  MIC: 195 to 100000 µg/mL (≈ 417 to 214000 µM)
E. cloacae complex; Enterobacter cloacae
  MIC: 1560 to 100000 µg/mL (≈ 3340 to 214000 µM)
A. baumannii; Acinetobacter baumannii
  MIC: 800 to 50000 µg/mL (≈ 1710 to 107000 µM)
[3]; Enterobacter
  MIC: 800 to 50000 µg/mL (≈ 1710 to 107000 µM)

## GIGAVLKVLTTGLPALISWIKRKRQQ-NH2 [Unmodified parent peptide: GIGAVLKVLTTGLPALISWIKRKRQQ-NH2]
Red blood cells; at <10 μM, reference 5
  Haemolytic activity: 100% at <10 μM
[4]; [7]
  MIC (range against a number of micro-organisms): 0.3 - 20 μM at
